Assay results published in PMC4121215, “Cytotoxic Constituents from the Rhizomes of Curcuma zedoaria” (The Scientific World Journal, 2014).
≈ marks a conversion by molar mass, not a printed value.

How the values were obtained:
PC-3 (prostate cancer) = assay: MTT cytotoxicity assay, PC-3; type: cell-based; details: for IC50: Homo sapiens, MTT, 72 h, mean ± SD of three replicates; for IC50 / SI (selectivity index) PC-3: isolated compounds; for antiproliferative/cytotoxic activity against PC-3 (in words): MTT assay; for SI (selectivity index) PC-3: IC50 HUVEC / IC50 PC-3
Description: (§1) The human cell lines MCF-7 (breast cancer), Ca Ski (cervical cancer), and HT-29 (colon cancer) were cultured as monolayer in RPMI 1640 growth media. HUVEC (human umbilical vein endothelial cells) and PC-3 (prostate cancer) cells were cultured in DMEM. All cells were purchased from the American Tissue Culture Collection (ATCC, USA) except for human umbilical vein endothelial cells (HUVEC) which were obtained from ScienCell Research Laboratories (Carlsbad, CA). All the media were supplemented with 10% v/v foetal bovine serum (FBS), 100 μg/mL penicillin/streptomycin, and 50 μg/mL amphotericin B. The cells were cultured in a 5% CO2 incubator at 37°C.
(§2) Cell viability was investigated using 3-(4, 5-dimethylthiazol-2-yl)-2, 5-diphenyltetrazolium bromide (MTT) assay. Cells were detached from the […] tissue culture flask when it achieved 80% confluency. The detached cells were pellet by centrifugation (1,000 rpm; 5 minutes). Cells (3.0 × 10^4 cells/mL) were seeded onto a 96-well microtiter plate (Nunc). The cells were incubated at 37°C CO2 incubator for 24 h to give adherent cells. The test compounds (1–100 μg/mL) were added onto the 96-well microtiter plate containing adherent cells. The untreated cells were incubated in 10% media containing 0.5% DMSO (without addition of any test compounds/extracts). This mixture was regarded as the negative control whereas doxorubicin as the positive control. The plates were incubated for 72 h at 37°C in a 5% CO2 incubator. After 72 h, the media were removed and 100 μL of fresh medium and 20 μL of MTT (Sigma, filter sterile, 5 mg/mL) were added to each well and further incubated for 4 hours (37°C) after which the media were substituted with 150 μL DMSO. The 96-well microtiter plates were then agitated at room temperature onto an incubator shaker to dissolve the formazan crystals. The absorbance (A) of the content of the plates was measured at 540 nm using a microplate reader. The percentage of inhibition of each test sample was calculated according to the following formula: Percentage of inhibition (%) = (A control − A sample)/A control × 100%. The average of three replicates was then obtained. The IC50 for each extract was extrapolated from the graphs of the percentage inhibition versus concentration of test agents. Cytotoxicity of each test agent is expressed as IC50 value. The IC50 value is the concentration of test agents that cause 50% inhibition or cell death, averaged from the three experiments. The selectivity index (SI) was also calculated as described by using the ratio between IC50 of the extract or compounds on normal cell lines (HUVEC) and IC50 of the tested extract or compounds on cancerous cell lines. Selectivity index (SI) values equal or greater than three were considered to have a high selectivity towards cancerous cells. An SI value denotes the selectivity of the sample to the tested cell lines.

HT-29 (colon cancer) = assay: MTT cytotoxicity assay, HT-29; type: cell-based; details: for IC50: Homo sapiens, HT-29, MTT, 72 h, mean ± SD of three replicates; for IC50 / SI (selectivity index) HT-29: isolated compounds; for antiproliferative/cytotoxic activity against HT-29 (in words): MTT assay; for SI (selectivity index) HT-29: IC50 HUVEC / IC50 HT-29
Description: as §1, §2

[1] = tested on: HUVEC (human umbilical vein endothelial cells); assay: cells; type: cell-based; details: Homo sapiens, HUVEC; isolated compounds; MTT, 72 h; normal cells
Description: as §1, §2

MCF-7 (breast cancer) = assay: cells; type: cell-based; details: for IC50: Homo sapiens, MCF7, MTT, 72 h, mean ± SD of three replicates; for IC50 / SI (selectivity index) MCF-7: isolated compounds; for SI (selectivity index) MCF-7: IC50 HUVEC / IC50 MCF-7
Description: as §1, §2

MCF-7 = tested on: MCF-7; parameters: method as in PMID 21629182; details: zerumin A isolated from Curcuma mangga; cited from earlier work
Ca Ski = tested on: Ca Ski; parameters: method as in PMID 21629182; details: zerumin A isolated from Curcuma mangga; cited from earlier work
Ca Ski (cervical cancer) = assay: cells; type: cell-based; details: for IC50: Homo sapiens, Ca-Ski, MTT, 72 h, mean ± SD of three replicates; for IC50 / SI (selectivity index) Ca Ski: isolated compounds; for SI (selectivity index) Ca Ski: IC50 HUVEC / IC50 Ca Ski
Description: as §1, §2

SMILES | IC50 (PC-3 (prostate cancer)) [µg/mL] | antiproliferative/cytotoxic activity against PC-3 (in words) (PC-3 (prostate cancer)) | SI (selectivity index) PC-3 (PC-3 (prostate cancer)) | IC50 (HT-29 (colon cancer)) [µg/mL] | antiproliferative/cytotoxic activity against HT-29 (in words) (HT-29 (colon cancer)) | SI (selectivity index) HT-29 (HT-29 (colon cancer)) | IC50 [1] [µg/mL] | IC50 (MCF-7 (breast cancer)) [µg/mL] | SI (selectivity index) MCF-7 (MCF-7 (breast cancer)) | IC50 MCF-7 (MCF-7) [µg/mL] | IC50 Ca Ski (Ca Ski) [µg/mL] | IC50 (Ca Ski (cervical cancer)) [µg/mL] | antiproliferative/cytotoxic activity against Ca Ski (in words) (Ca Ski (cervical cancer); MTT assay) | SI (selectivity index) Ca Ski (Ca Ski (cervical cancer)) | antiproliferative/cytotoxic activity against MCF-7 (in words) (MCF-7 (breast cancer); MTT assay)
C=C1CC[C@H]2C(C)(C)CCC[C@]2(C)[C@H]1CC=C(C=O)CC(=O)O (stereo in doubt) [Compound 16, zerumin A] | 21.9 ± 1.6 (≈ 68.8 µM) | moderate inhibitory activity | 1.2 | 17.4 ± 2 (≈ 54.6 µM) | moderate inhibitory activity | 1.5 | 25.8 ± 1.9 (≈ 81 µM) | 22.3 ± 1.1 (≈ 70 µM) | 1.2 | 14.2 ± 0.06 (≈ 44.6 µM) | 8.7 ± 0.29 (≈ 27.3 µM) |  |  |  | 
C=C1CC[C@H]2C(C)(C)CCC[C@]2(C)[C@H]1C/C=C(/C=O)CC=O [Compound 1, labda-8(17),12 diene-15,16 dial] | 26.3 ± 2.4 (≈ 87 µM) | moderate inhibitory activity | 1.7 | 21.5 ± 3.1 (≈ 71.1 µM) | moderate inhibitory activity | 2.1 | 45.3 ± 1.9 (≈ 150 µM) | 16.3 ± 0.2 (≈ 53.9 µM) | 2.8 |  |  | 14.5 ± 0.1 (≈ 47.9 µM) | moderate cytotoxicity | 3.1 | moderate cytotoxicity
CC(C)=C1CC(=O)[C@@H](C)CC/C=C(\C)CC1=O [Compound 2, dehydrocurdione] | 19.1 ± 2.8 (≈ 81.5 µM) | moderate inhibitory activity | 1.3 | 22.7 ± 2.4 (≈ 96.9 µM) | moderate inhibitory activity | 1.1 | 24 ± 2.1 (≈ 102 µM) | 33 ± 1.1 (≈ 141 µM) | 0.7 |  |  | 21.7 ± 1.1 (≈ 92.6 µM) |  | 1.1 | 
CC1=CC2C(=C(C)C)C(=O)C=C(C)C2CC1 (centres unmarked) [Compound 4, comosone II] |  |  |  |  |  |  |  | > 100 |  |  |  | 76 ± 1.2 (≈ 351 µM) |  |  | 
CC1=CC(=O)C(=C(C)C)C[C@H]2[C@H]1CC[C@]2(C)O [Compound 6, procurcumenol] | 13.3 ± 1.7 (≈ 56.8 µM) | good cytotoxic effect | 1.2 | 15.5 ± 2.3 (≈ 66.1 µM) | good cytotoxic effect | 1.1 | 16.3 ± 1 (≈ 69.6 µM) | 16.1 ± 2.2 (≈ 68.7 µM) | 1.0 |  |  | 62.4 ± 0.3 (≈ 266 µM) |  | 0.3 | 
CC(C)=C1C/C=C(\C)CC/C=C(\C)CC1=O [Compound 7, germacrone] | 55.2 ± 4.9 (≈ 253 µM) |  | 1.3 | 42.9 ± 4.1 (≈ 196 µM) |  | 1.7 | 73.7 ± 0.3 (≈ 338 µM) | 59.1 ± 2.9 (≈ 271 µM) | 1.2 |  |  | 39.3 ± 1.2 (≈ 180 µM) |  | 1.9 | 
CC1=CCCC2(C)OC2C(=O)c2c(C)coc2C1 (centres unmarked) [Compound 9, zederone] | 27 ± 1.9 (≈ 110 µM) | moderate inhibitory activity | 1.6 | 19.1 ± 2.5 (≈ 77.5 µM) | moderate inhibitory activity | 2.2 | 42.1 ± 2.7 (≈ 171 µM) | > 100 | 0.4 |  |  | > 100 |  | 0.4 | 
CC1=CC2(O)OC3(CC2=C(C)C)C(C)CCC13 (centres unmarked) [Compound 10, 9-isopropylidene-2,6-dimethyl-11-oxatricyclo[6.2.1.0^1,5]undec-6-en-8-ol] |  |  |  |  |  |  | 71.7 ± 6.1 (≈ 306 µM) | > 100 | < 0.7 |  |  | > 100 |  | < 0.7 | 
C/C1=C\Cc2c(C)coc2C/C(C)=C/CC1 [Compound 11, furanodiene] | 39.5 ± 4.5 (≈ 183 µM) |  | 1.0 | 47.2 ± 4.4 (≈ 218 µM) |  | 0.9 | 40.9 ± 2.6 (≈ 189 µM) | 36.5 ± 2.6 (≈ 169 µM) | 1.1 |  |  |  |  |  | 
